Values of other authors, collected in patent publication US20240299372A1, “Transdermal Drug Delivery Systems for Administration of a Therapeutically Effective Amount of Apixaban and Other Direct Oral Anticoagulants” (Pike Therapeutics Inc., priority 2023, published 2024).

How the values were obtained:
[1] = for Absolute oral bioavailability: oral administration; for bioavailability: oral, background statement on GI tract exposure
[2] = oral administration; literature refs [1-4]

Absolute oral bioavailability [1]	bioavailability [1]	bleeding complications as reason for DOAC discontinuation [2]	Structure (SMILES)
approx. 34%			COc1ccc(NC(=O)c2ccc(C(=N)N(C)C)cc2)c(C(=O)Nc2ccc(Cl)cn2)c1 [Betrixaban, N-(5-chloropyridin-2-yl)-2-[[4-(N,N-dimethylcarbamimidoyl)benzoyl]amino]-5-methoxybenzamide]
80%-100	60-80%	16.8-24.5%	O=C(NC[C@H]1CN(c2ccc(N3CCOCC3=O)cc2)C(=O)O1)c1ccc(Cl)s1 [Rivaroxaban, 5-chloro-N-[[(5S)-2-oxo-3-[4-(3-oxomorpholin-4-yl)phenyl]-1,3-oxazolidin-5-yl]methyl]thiophene-2-carboxamide]

The remaining lines, values behind:

Structure (SMILES)	Absolute oral bioavailability [1]	bioavailability [1]	bleeding complications as reason for DOAC discontinuation [2]
[H]/N=C(/N)c1ccc(NCc2nc3cc(C(=O)N(CCC(=O)O)c4ccccn4)ccc3n2C)cc1 [Dabigatran, 3-[[2-[(4-carbamimidoylanilino)methyl]-1-methylbenzimidazole-5-carbonyl]-pyridin-2-ylamino]propanoic acid]	3%-7	6%	3.4-9.7%
CN1CCc2nc(C(=O)N[C@@H]3C[C@@H](C(=O)N(C)C)CC[C@@H]3NC(=O)C(=O)Nc3ccc(Cl)cn3)sc2C1 [Edoxaban, N′-(5-chloropyridin-2-yl)-N-[(1S,2R, 4S)-4-(dimethylcarbamoyl)-2-[(5-methyl-6,7-dihydro-4H-[1,3]thiazolo[5,4-c]pyridine-2-carbonyl)amino]cyclohexyl]oxamide]	approx. 62%		
COc1ccc(-n2nc(C(N)=O)c3c2C(=O)N(c2ccc(N4CCCCC4=O)cc2)CC3)cc1 [Apixaban, 1-(4-methoxyphenyl)-7-oxo-6-[4-(2-oxopiperidin-1-yl)phenyl]-4,5-dihydropyrazolo[3,4-c]pyridine-3-carboxamide]	approx. 50%		5.7-10.1%
